Experimental data from patent US20250324955A1, “ZEBRAFISH MODEL OF HUMAN ACUTE MYELOID LEUKEMIA AND METHOD OF USE THEREOF” (Versitech Limited, priority 2022, published 2025).

What was measured:
wildtype zebrafish = assay: Initial dose-finding study in adult fish, daily oral gavage, survival; format: in vivo; details: daily gavage of quizartinib at 10 mg/kg, enasidenib at 100 mg/kg, 14 days
Procedure: (§1) Drugs at three concentrations (0.01 μM, 0.1 μM and 1 μM) were added to the embryos in E3 medium with (1-phenyl-2-thiourea) PTU at 6 hpf, and the medium was changed every 24 hours. At 4 dpf, embryos were collected and fixed in 4% PFA for SSB staining. […] Adult zebrafish were anesthetized using 0.015% Tricaine. […] Treated zebrafish were then placed into an individual recovery tank with fresh sterile fish water immediately after the gavage procedure. The drug regimen was repeated daily for 14 days. The gavage apparatus was consisted of a 10 μl microliter syringe (Gaoge, Shanghai, China) and a polyethylene tubing (BTPE-50, INTECH, USA), and was adapted from Collymore et al., 2013 and Dang, Michelle, et al., 2016.

[1] = tested on: Tg(Runx1:FLT3^ITDIDH2^R172K) and Tg(Runx1:FLT3^ITDIDH2^R140Q) embryos; assay: Drug treatment of double transgenic embryos, SBB staining as surrogate for embryonic myelopoiesis; format: in vivo, zebrafish; details: drugs at 0.01 μM, 0.1 μM and 1 μM from 6 hpf, stained at 4 dpf
Procedure: as §1, with “days.” for “days. The gavage apparatus was consisted of a 10 μl microliter syringe (Gaoge, Shanghai, China) and a polyethylene tubing (BTPE-50, INTECH, USA), and was adapted from Collymore et al., 2013 and Dang, Michelle, et al., 2016.”

[2] = tested on: FLT3^ITD and IDH2 double mutant zebrafish; assay: 14-day oral gavage treatment of adult double transgenic leukemic fish, kidney marrow analysis; format: in vivo; details: daily oral gavage 14 days, quizartinib 10 mg/kg, enasidenib 100 mg/kg
Procedure: (§2) Zebrafish WKM were harvested from two to twelve months old transgenic or wildtype TU fish. The collected KM was dissociated in 0.9×PBS with 5% fetal bovine serum (FBS) by pipetting and filtered through a 40 μm nylon cell strainer (Corning, NY, USA). The cells were then centrifuged at 500 g for 5 minutes, resuspended, filtered, and washed with 0.9×PBS with 5% (FBS) at least twice. Flow cytometry of the KM was performed using a MoFlo XDP flow cytometer (Beckman coulter). The data was analyzed using FlowJo™ v10.6.1 software. Cytospin preparations were made with 2×10^5 to 3×10^5 cells cytocentrifuged at 400 rpm for 5 minutes onto microscope glass slides (Thermo scientific). The glass slides were dried at room temperature for more than 12 hours, stained with Wright-Giemsa stain, and imaged with Nikon DS-Ri2 digital camera fitted to a Nikon Eclipse Ni-U microscope.
as §1, with “days.” for “days. The gavage apparatus was consisted of a 10 μl microliter syringe (Gaoge, Shanghai, China) and a polyethylene tubing (BTPE-50, INTECH, USA), and was adapted from Collymore et al., 2013 and Dang, Michelle, et al., 2016.”

[3] = tested on: Tg(Runx1:FLT3^ITDIDH2^R140Q) zebrafish; assay: 14-day oral gavage treatment of adult Tg(Runx1:FLT3^ITDIDH2^R140Q) fish; format: in vivo; details: adult Tg(Runx1:FLT3^ITD IDH2^R140Q) double mutant; treatment with Quizartinib and/or Enasidenib, 14 days
Procedure: as §2
as §1, with “days.” for “days. The gavage apparatus was consisted of a 10 μl microliter syringe (Gaoge, Shanghai, China) and a polyethylene tubing (BTPE-50, INTECH, USA), and was adapted from Collymore et al., 2013 and Dang, Michelle, et al., 2016.”

[4] = tested on: Tg(Runx1:FLT3^ITDIDH2^R172K) zebrafish; assay: 14-day oral gavage treatment of adult Tg(Runx1:FLT3^ITDIDH2^R172K) fish; format: in vivo; details: adult Tg(Runx1:FLT3^ITDIDH2^R172K) double mutants; treatment with Quizartinib and/or Enasidenib, 14 days
Procedure: as §2
as §1, with “days.” for “days. The gavage apparatus was consisted of a 10 μl microliter syringe (Gaoge, Shanghai, China) and a polyethylene tubing (BTPE-50, INTECH, USA), and was adapted from Collymore et al., 2013 and Dang, Michelle, et al., 2016.”

Row | SMILES | fish survival (wildtype zebrafish) | embryonic myelopoiesis (cytochemical staining with SBB) [1] | blast counts in KM ([2]; alone or combined) | erythroid cells in KM / erythropoiesis ([2]; alone or combined) | neutrophils in KM ([2]; alone or combined) | cellularity in KM ([2]; monotherapy) | spleen size [3] | spleen size [4]
1 | CC(C)(C)c1cc(NC(=O)Nc2ccc(-c3cn4c(n3)sc3cc(OCCN5CCOCC5)ccc34)cc2)no1 [quizartinib, Quizartinib] | compatible with normal fish survival |  |  |  |  |  |  | 
2 | CC(C)(O)CNc1nc(Nc2ccnc(C(F)(F)F)c2)nc(-c2cccc(C(F)(F)F)n2)n1 [enasidenib, Enasidenib] | compatible with normal fish survival | ameliorated the increase in myelopoiesis | reduced blast counts in KM | significant increase in neutrophils and erythroid | significant increase in neutrophils | but not enasidenib monotherapy significantly reduced cellularity | no changes were observed in spleen size | decreased spleen sizes
